Measurements as given in patent publication US20240415858A1, “PROMOTING MYELINATION BY N-ACETYLGLUCOSAMINE AND MODULATION OF N-GLYCAN BRANCHING” (THE REGENTS OF THE UNIVERSITY OF CALIFORNIA, priority 2021, published 2024).

Test system: blasting/activated CD25+CD4+ T cells
Test: Phase 1 trial: N-glycan branching in T cells by L-PHA flow cytometry
Type: in vivo, human
Conditions: for average increase of L-PHA binding in blasting/activated CD25+CD4+ T cells: oral
Procedure: Based on its immunomodulatory effects, a FDA approved (IND 122235) dose escalation was carried out, open-label NIH funded Phase 1 mechanistic clinical trial of oral GIcNAc in MS patients (RRMS and PMS) on glatiramer acetate and not in acute relapse, with the primary endpoint an increase in N-glycan branching in T cells. This endpoint was used as a surrogate marker for GIcNAc's biological activity. Three doses were evaluated: 1 g TID (3 g total, n=13), 2 g TID (6 g total, n=18) and 4 g TID (12 g total, n=16). Subjects had baseline blood drawn weekly four times, then started on oral GIcNAc with 4 weekly blood draws (FIG. 8A).
To assess the primary endpoint (increased N-glycan branching in T cells), flow cytometry was used to assess binding of the plant lectin L-PHA (Phaseolus vulgaris leukoagglutinin) to T cells. L-PHA is a highly sensitive and specific measure of N-glycan branching. L-PHA binding was increased in blasting/activated CD25^+CD4^+ T cells in the 12 g (p=0.0065) and 6 g (p=0.037) but not the 3 g cohort, with average increases of 7%, 3% and 1.7% respectively (FIGS. 8H and 8I); the latter indicative of a dose response.

## CC(=O)N[C@H]1C(O)O[C@H](CO)[C@@H](O)[C@@H]1O (some centres unmarked) [GIcNAc, N-acetylglucosamine]
Oral GIcNAc, data not shown
  L-PHA binding in activated CD25+CD8+ T cells, resting CD25-CD4+ and CD25-CD8+ T cells and activated/resting CD19+ B cells: no increase
3 g cohort (not significant)
  average increase of L-PHA binding in blasting/activated CD25+CD4+ T cells: 1.7%
6 g cohort (p=0.037)
  average increase of L-PHA binding in blasting/activated CD25+CD4+ T cells: 3%
12 g cohort (p=0.0065)
  average increase of L-PHA binding in blasting/activated CD25+CD4+ T cells: 7%
post-GIcNAc, 6 g and 12 g cohorts
  L-PHA binding to blasting/activated CD25+CD4+ T cells during the washout period vs pre-GIcNAc or during GIcNAc: no significant difference
